Results published in article PMC11778240, “Synthesis and preclinical evaluation of tigilanol tiglate analogs as latency-reversing agents for the eradication of HIV” (Science Advances, 2025).

Key:
mast cell tumors = mast cell tumors in canines; cited from earlier work
tumor necrosis factor–α = experiment: TNF-α ELISA, A549 cells; format: cell-based, Human; conditions: for TNF-α (ELISA): 24 hours, lowest detectable limit 3.5 pg/ml
Method: The Anti-Human IL-8 pre-coated 96-well Strip Microplate and Anti-Human TNF-α pre-coated 96-well Strip Microplate were each washed 4 times by hand. With each wash, at least 300 μL of 1X Wash Buffer was added per well and aspirated, and any residual buffer was removed by blotting the plate on an absorbent paper towel. Following this wash cycle, 50 μL of Assay Buffer A was added to each well that would ultimately contain sample or standard. To rigorously ensure no cellular debris was left in the analyte, an ad ditional centrifugation step was performed (1800 rpm for 3 minutes) before transferring 50 μL of sample or standard dilutions to the appropriate wells.
Adhesive plate sealers were utilized to cover the plates, prevent contamination, and avoid sample evaporation after which each plate was placed on a cell shaker and allowed to shake at room temperature at 200 rpm for 2 hours. Following incubation, the contents of each plate were discarded and subsequently washed by hand 4 times with 1X Wash Buffer, as previo usly reported. […]

interleukin-8 = experiment: IL-8 ELISA, A549 cells; format: cell-based, Human; conditions: 24 hours
Method: Because SUW402 and SUW431 are potent activators of NF-κB, we used an enzyme-linked immunosorbent assay to measure their ability to up-regulate inflammatory cytokine production (tumor necrosis factor–α and interleukin-8). We stimulated A549 cells with SUW402 and SUW431 at the same concentrations used in the NF-κB activation assay: 500 and 50 nM (figs. S1 and S2). […] At 500 or 50 nM, both SUW402 and SUW431 produced only modest levels of interleukin-8, a 15 to 25% increase relative to the DMSO negative control.
Enzyme Linked Immunosorbent Assay (ELISA) for SUW402 and SUW431 mediated IL-8 and […]
In efforts to replicate the conditions of the in vitro NF -κB assay, 5 x 10^4 A549 cells were plated per well on Corning® 96-well Clear Round Bottom TC-treated Microplates in 180 μl of pre-warmed DMEM (4.5 g/L glucose, 10% FBS, and 1% Pen-Strep-Glutamine (100 X, 50 mg/mL)).
Following incubation at 37 °C in 5% CO2 for approximately 24 hours to allow for cell adherence, 1.8 μl of either SUW402 or SUW431 were added in triplicate to their respective wells to achieve a final compound concentration of either 50 nM or 500 nM, the two concentrations tested in the NF-κB assay. 24 hours after compound addition, the microplate containing cells treated with compound was spun at 1800 rpm for 3 minutes to allow for pelleting of cells and other debris before 150 μL of cellular supernatant was aspirated and transferred to a new Corning® 96 -well Clear Round Bottom TC-treated Microplate. Note that if the supernatant is not meant to be immediately analyzed, the microplate containing cellular supernatant should be paraf ilm, wrapped, and stored at -80 °C. Careful attention should be paid to avoiding freeze-thaw cycles. To quantify cytokine secretion within samples, dilutions were performed using Assay Buffer A included in the LEGEND MAX™ Human IL-8 ELISA Kit (Cat # 431507) and LEGEND MAX™ Human TNF-α ELISA Kit (Cat # 430207), respectively.
Immediately before running the assay, reagents were allowed to come to room temperature and diluted. Note that if the supernatant is frozen, it should be removed at this time and allowed to thaw. The 1X Wash Buffer was prepared by diluting the 20X Wash Buf fer with Invitrogen™ UltraPure™ DNase/RNase-Free Distilled Water. The lyophilized human IL-8 and TNF-α standards were reconstituted by adding the appropriate volume of Assay Buffer A to prepare the 20 ng/mL standard stock solutions. The reconstituted stand ards were allowed to sit at room temperature for 20 minutes before being gently vortexed to ensure complete mixing. To generate a standard curve for each cytokine, 500 μL of a 1,000 pg/mL top standard was prepared after which six two -fold serial dilutions of the top standard were performed in 1.7 mL microcentrifuge tubes using Assay […]

Structure (SMILES): C/C=C(\C)C(=O)O[C@@H]1[C@@H](C)[C@@]2(O)[C@H]([C@@H]3C(C)(C)[C@]13OC(=O)[C@@H](C)CC)[C@@H]1O[C@]1(CO)[C@@H](O)[C@]1(O)C(=O)C(C)=C[C@H]12 [EBC-46, Tigilanol tiglate]
- cure rate (mast cell tumors): ≤ 88%

Structure (SMILES): C/C=C(\C)C(=O)O[C@@H]1[C@@H](C)[C@@]2(O)[C@@H](C=C(CO)C[C@]3(O)C(=O)C(C)=C[C@@H]23)[C@@H]2C(C)(C)[C@]12OC(=O)[C@@H](C)CC [SUW402]
- TNF-α (ELISA) (tumor necrosis factor–α; 50 nM): < 3.5 pg/mL
- TNF-α (ELISA) (tumor necrosis factor–α; 500 nM): < 3.5 pg/mL
- tumor necrosis factor–α production in words (tumor necrosis factor–α; 500 and 50 nM): did not produce detectable levels of tumor necrosis factor–α at either concentration
- IL-8 (ELISA) (interleukin-8; 50 nM): 3352 pg/mL
- IL-8 (ELISA) (interleukin-8; 500 nM): 3106 pg/mL

Structure (SMILES): C/C=C(\C)C(=O)O[C@@H]1[C@@H](C)[C@@]2(O)[C@H]([C@@H]3C(C)(C)[C@]13OC(=O)Cc1cccc3ccccc13)[C@@H]1O[C@]1(CO)[C@@H](O)[C@]1(O)C(=O)C(C)=C[C@H]12 [SUW431]
- TNF-α (ELISA) (tumor necrosis factor–α; 50 nM): 4.4 pg/mL
- TNF-α (ELISA) (tumor necrosis factor–α; 500 nM): 8.4 pg/mL
- IL-8 (ELISA) (interleukin-8; 50 nM): 3369 pg/mL
- IL-8 (ELISA) (interleukin-8; 500 nM): 3232 pg/mL
